# Laboratory results reported in US10562857B2 (AFASCI, Inc., priority 2015, dated 2020).
# “Also recorded” adds a separate entry of the source.
# Assays:
# Cav3.2 channel = molecular target: T1, Cav3.2 channel (Homo sapiens, UniProt O95180); experiment: Whole-cell patch clamp of T-type Cav3.2 channel expressed in HEK293 cells; type: cell-based; details: for inhibition at 1 µM: HEK293, Table 1 primary screening
# T1 construct: expressed in transfected cells; host or cells: HEK-293, tetracycline inducible expression system (Invitrogen)
# T1 sequence (O95180 whole entry): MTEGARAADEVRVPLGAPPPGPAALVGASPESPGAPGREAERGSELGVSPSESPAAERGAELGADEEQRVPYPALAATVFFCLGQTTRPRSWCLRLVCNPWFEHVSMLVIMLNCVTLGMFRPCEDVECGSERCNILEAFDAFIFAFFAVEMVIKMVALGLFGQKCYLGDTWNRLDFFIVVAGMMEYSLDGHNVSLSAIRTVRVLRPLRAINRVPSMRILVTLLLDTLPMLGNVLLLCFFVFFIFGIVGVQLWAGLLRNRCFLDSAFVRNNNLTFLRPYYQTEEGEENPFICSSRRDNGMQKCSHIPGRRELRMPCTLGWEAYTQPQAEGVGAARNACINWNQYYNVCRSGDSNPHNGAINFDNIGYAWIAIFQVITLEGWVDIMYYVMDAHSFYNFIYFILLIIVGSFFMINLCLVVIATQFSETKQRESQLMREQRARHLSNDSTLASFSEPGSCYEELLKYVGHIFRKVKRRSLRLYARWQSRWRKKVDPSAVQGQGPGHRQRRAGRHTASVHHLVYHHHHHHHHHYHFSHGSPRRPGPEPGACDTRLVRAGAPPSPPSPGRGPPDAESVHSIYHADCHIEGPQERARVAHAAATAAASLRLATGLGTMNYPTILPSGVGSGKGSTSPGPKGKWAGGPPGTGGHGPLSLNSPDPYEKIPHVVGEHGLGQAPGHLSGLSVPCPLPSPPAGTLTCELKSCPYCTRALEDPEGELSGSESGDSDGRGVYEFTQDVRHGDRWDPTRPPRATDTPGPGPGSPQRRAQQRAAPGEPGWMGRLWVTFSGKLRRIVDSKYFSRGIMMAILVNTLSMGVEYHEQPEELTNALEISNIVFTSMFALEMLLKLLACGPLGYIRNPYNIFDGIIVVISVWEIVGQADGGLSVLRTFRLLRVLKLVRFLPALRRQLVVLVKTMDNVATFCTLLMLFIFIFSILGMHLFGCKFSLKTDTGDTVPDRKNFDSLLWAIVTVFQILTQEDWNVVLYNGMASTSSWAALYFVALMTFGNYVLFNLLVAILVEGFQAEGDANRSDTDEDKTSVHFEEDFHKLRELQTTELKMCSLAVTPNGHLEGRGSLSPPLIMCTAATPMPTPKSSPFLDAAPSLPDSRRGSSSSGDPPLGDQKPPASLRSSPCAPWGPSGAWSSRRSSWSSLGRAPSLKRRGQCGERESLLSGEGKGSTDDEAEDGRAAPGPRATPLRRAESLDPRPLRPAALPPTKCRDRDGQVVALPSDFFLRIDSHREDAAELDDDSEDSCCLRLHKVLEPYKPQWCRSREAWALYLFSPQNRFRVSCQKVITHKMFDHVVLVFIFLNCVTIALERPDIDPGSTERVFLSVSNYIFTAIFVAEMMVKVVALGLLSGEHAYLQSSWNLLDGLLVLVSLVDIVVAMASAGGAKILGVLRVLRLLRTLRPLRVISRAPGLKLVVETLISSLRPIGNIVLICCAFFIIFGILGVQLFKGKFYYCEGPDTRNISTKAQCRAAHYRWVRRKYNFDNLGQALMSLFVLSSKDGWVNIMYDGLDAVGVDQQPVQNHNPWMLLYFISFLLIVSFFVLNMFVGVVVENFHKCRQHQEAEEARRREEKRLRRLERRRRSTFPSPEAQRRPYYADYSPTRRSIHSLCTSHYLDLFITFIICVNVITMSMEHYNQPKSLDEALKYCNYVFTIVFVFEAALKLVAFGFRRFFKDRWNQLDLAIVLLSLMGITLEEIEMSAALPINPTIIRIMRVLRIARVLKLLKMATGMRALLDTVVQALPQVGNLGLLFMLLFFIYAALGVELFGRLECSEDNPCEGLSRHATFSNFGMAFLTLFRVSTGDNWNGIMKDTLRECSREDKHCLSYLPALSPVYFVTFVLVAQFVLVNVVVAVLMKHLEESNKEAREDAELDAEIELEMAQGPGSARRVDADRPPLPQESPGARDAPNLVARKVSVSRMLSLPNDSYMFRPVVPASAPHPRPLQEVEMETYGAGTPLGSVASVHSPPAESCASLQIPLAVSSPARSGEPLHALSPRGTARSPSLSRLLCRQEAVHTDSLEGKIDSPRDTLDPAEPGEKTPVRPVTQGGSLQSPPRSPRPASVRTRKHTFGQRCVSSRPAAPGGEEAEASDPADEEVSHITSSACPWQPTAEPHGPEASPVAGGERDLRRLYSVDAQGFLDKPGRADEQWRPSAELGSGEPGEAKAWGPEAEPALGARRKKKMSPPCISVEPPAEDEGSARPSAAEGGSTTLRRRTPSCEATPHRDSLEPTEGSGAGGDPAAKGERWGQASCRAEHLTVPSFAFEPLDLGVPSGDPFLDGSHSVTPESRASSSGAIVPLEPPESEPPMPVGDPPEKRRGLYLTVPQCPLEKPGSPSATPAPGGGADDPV
# [1] = test system: incision-induced pain in mice; experiment: Incision-induced acute pain in mice, von Frey test; type: in vivo, mouse; details: 30 mg/kg I.P.
# Procedure: FIG. 9. Effects of EXAMPLE-116, -118 or ML218 (a reference compound) on incision-induced acute pain in mice (C57BL/6, male, ˜2 months old; n=8 mice per treatment group). Mechanical pain threshold assessment (von Frey monofilament test) of the mice's incision left hindpaws. Each mouse received either EXAMPLE-116, -118, or ML218 (as a reference compound, each 30 mg/kg, I.P.) or vehicle (2% DMSO in 0.5% HPC, I.P.). Mechanical pain responses were measured at 0.5, 1, 2, 4, and 5 hours after treatment.
# To further confirm the Cav3 modulator effects on acute pain and neurogenic inflammatory pain, an incision-pain mode in mice was used. Postoperative pain model induced by a deep incision in the hindpaw produces robust mechanical allodynia (Pogatzki et al., 2003). Mechanical pain thresholds were assessed using von Frey monofilament test of the incised left hindpaws. Each mouse received either EXAMPLE-116, -118, ML218 (as a reference compound, each 30 mg/kg, I.P.) or vehicle (2% DMSO in 0.5% HPC, I.P., n=8 mice per treatment group). Mechanical pain responses were measured at 0.5, 1, 2, 4, and 5 hours after treatment.
# [2] = test system: taxol-induced neuropathic pain model in mice; experiment: Taxol-induced neuropathic pain in mice, von Frey test; type: in vivo, mouse; details: 30 mg/kg I.P.
# Procedure: FIG. 6A. Effects of EXAMPLE-115 on taxol (4 mg/kg, I.P.)-induced neuropathic pain model in mice. Mechanical pain thresholds of left hindpaws were assessed using von Frey monofilament test. Each mouse received either EXAMPLE-115 (3, 10 or 30 mg/kg, I.P.) or vehicle (2% DMSO in 0.5% HPC, I.P.; n=8 per group). Injection of taxol lowered mechanical pain thresholds.
# FIG. 6B. Effects of EXAMPLE-123 on taxol (4 mg/kg, I.P.)-induced neuropathic pain model in a separate cohort of mice. Mechanical pain thresholds of left hindpaws were assessed using von Frey monofilament test. Each mouse received either EXAMPLE-123 (30 mg/kg, I.P., n=8) or vehicle (2% DMSO in 0.5% HPC, I.P.).
# Chemotherapy-induced painful neuropathy is a common side effect associated with chronic treatment with Taxol (paclitaxel) or other anticancer drugs based on cytotoxicity. Taxol or paclitaxel is one of the most popular drugs used for the treatment of various cancers (Chaudhry et al., 1994). The chemotherapy-induced peripheral neuropathy manifests as chronic hyperalgesia and other sensory abnormalities. Taxol (Sigma, 4.0 mg/kg, I.P.) was dissolved in saline containing 5% DMSO (vehicle) and injected to mice (freshly prepared before injection).
# T-type Ca2+ current = details: Avdonin et al., 2000; cited from earlier work
inhibition at 1 µM (Cav3.2 channel),SMILES,"mechanical pain threshold, incision-induced pain [1]",also measured
10%,"O=C(Nc1nnc(-c2ccc(Cl)s2)o1)N1C(=O)c2cc(Cl)c(Cl)cc2C1=O [Example 116, 5,6-Dichloro-N-(5-(5-chlorothiophen-2-yl)-1,3,4-oxadiazol-2-yl)-1,3-dioxoisoindoline-2-carboxamide]",inhibited incision-induced inflammatory pain,
20%,"O=C(CCc1cccc(Cl)c1)Nc1nnc(-c2ccc(Cl)s2)o1 [Example 118, 3-(3-Chlorophenyl)-N-(5-(5-chlorothiophen-2-yl)-1,3,4-oxadiazol-2-yl)propanamide]",inhibited incision-induced inflammatory pain,
,"O=C(CNc1ccccc1)Nc1nnc(-c2ccccc2)o1 [Example 123, N-(5-Phenyl-1,3,4-oxadiazol-2-yl)-2-(phenylamino)acetamide]",,"IC50 (Cav3.2 channel; Table 1, tested at at least 4 concentrations, read-out: IC50): 5.1 µM; duration of reduction of taxol-induced neuropathic pain [2]: at least 5 hours; mechanical pain threshold, taxol-induced neuropathic pain ([2]; taxol 4 mg/kg I.P.): caused significant effects on Taxol-induced pain; also recorded: reduced the taxol-induced neuropathic pain"
,COCC(=O)O[C@]1(CCN(C)CCCc2nc3ccccc3[nH]2)CCc2cc(F)ccc2[C@@H]1C(C)C [mibefradil],,potency of T-type inhibition relative to L-type Ca2+ current or voltage-gated Na+ current (T-type Ca2+ current): 3-10 times
